Counter-ions that a name gives are not always drawn.

Broadly, the IC50 is the concentration that gives 50% inhibition.

The experiment deals with T1, ENaC (Homo sapiens, UniProt P37088+P51168+P51170).
T1 construct: host or cells: primary human bronchial epithelial cells (HBECs) differentiated at air-liquid interface
T1 sequence (P37088 1-669): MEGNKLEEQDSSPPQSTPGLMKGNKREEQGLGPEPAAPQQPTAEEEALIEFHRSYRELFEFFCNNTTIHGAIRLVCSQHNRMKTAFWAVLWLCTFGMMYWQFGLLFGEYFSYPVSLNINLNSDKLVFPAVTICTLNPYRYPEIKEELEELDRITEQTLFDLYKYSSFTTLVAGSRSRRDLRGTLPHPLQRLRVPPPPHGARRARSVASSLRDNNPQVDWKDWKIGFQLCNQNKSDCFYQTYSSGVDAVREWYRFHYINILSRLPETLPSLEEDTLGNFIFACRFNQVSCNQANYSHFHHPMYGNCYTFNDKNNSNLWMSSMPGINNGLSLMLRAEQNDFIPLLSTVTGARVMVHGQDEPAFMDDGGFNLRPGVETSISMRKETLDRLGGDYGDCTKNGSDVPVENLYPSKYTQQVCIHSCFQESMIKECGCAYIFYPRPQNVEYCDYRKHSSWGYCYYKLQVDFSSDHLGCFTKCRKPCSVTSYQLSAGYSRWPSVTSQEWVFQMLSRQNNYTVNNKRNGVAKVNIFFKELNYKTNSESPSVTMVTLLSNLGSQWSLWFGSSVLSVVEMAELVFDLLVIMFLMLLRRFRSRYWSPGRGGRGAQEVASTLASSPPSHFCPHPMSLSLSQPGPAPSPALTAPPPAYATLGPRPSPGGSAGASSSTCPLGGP
T1 sequence (P51168 1-640): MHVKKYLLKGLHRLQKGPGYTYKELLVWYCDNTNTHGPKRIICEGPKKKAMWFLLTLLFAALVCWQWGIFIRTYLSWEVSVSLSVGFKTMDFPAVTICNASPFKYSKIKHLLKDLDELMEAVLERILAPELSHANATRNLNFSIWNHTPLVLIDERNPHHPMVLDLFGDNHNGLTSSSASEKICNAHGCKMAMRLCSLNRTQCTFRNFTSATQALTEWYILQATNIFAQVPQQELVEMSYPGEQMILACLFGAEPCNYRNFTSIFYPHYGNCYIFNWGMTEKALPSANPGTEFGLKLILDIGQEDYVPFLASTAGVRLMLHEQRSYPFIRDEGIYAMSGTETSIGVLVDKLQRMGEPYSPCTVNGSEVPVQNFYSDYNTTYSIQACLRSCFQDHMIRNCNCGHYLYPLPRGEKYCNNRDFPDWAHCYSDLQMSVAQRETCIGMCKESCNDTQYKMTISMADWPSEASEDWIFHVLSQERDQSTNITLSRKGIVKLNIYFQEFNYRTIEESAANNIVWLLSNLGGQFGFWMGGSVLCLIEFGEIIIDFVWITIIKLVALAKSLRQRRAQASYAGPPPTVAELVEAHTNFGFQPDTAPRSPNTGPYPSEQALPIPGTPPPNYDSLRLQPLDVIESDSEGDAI
T1 sequence (P51170 1-649): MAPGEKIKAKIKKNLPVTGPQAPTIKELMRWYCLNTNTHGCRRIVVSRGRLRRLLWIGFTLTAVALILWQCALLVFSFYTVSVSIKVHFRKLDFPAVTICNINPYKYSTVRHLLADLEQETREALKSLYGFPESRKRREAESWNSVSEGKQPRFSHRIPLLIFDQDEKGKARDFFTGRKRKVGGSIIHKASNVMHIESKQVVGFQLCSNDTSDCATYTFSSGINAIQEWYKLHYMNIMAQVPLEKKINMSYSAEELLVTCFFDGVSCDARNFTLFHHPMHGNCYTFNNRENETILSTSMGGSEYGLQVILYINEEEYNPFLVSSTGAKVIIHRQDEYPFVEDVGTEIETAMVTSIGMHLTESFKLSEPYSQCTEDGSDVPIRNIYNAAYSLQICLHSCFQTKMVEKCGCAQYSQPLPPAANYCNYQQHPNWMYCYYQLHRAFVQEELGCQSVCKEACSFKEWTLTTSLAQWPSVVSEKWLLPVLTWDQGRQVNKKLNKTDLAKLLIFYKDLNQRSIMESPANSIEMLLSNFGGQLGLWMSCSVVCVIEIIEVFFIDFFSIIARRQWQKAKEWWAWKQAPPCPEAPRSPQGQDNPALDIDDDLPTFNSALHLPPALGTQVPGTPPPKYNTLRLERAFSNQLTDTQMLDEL
Description: Short circuit current assay to determine ENaC blocker potency in human bronchial epithelial cells. Format: cell-based. As to conditions: 50% inhibition of total amiloride-sensitive ISC, apical addition, read-out: Averages.ENaC IC50 (nM) Avg. How it is done:
Example 68—Short circuit current assay to determine ENaC blocker potency in human bronchial epithelial cells
Human bronchial epithelial cells (HBECs) (Lonza, UK) were cultured using a modification of the method described by Coote et al, (2008). Cells were seeded into plastic T-75 flasks and grown in Bronchial Epithelial Cell Growth Medium (BEGM) (Lonza, UK) supplemented with bovine pituitary extract (52 ng/mL), hydrocortisone (0.5 μg/mL), human recombinant Epidermal Growth Factor (0.5 ng/mL), epinephrine (0.5 ng/mL), transferrin (10 ng/mL), insulin (5 ng/mL), retinoic acid (0.1 ng/mL), triiodothyronine (6.5 ng/mL), gentamycin (50 μg/mL) and amphotericin-B (50 ng/mL). Medium was changed every 48 hours until cells were 90% confluent. Cells were then passaged and seeded (8.25×10^5 cells/insert) onto polycarbonate Snapwell™ inserts (Costar, UK) in differentiation media containing 50% DMEM in BGEM with the same supplements as above but without triiodothyronine and a final retinoic acid concentration of 50 nM (all-trans retinoic acid; Sigma-Aldrich, UK). Cells were maintained submerged for the first 7 days in culture after which time they were exposed to an apical air interface for the remainder of the culture period. From the first day of establishment of an ALI, HBEC were fed with a DMEM:HAMS F-12 (1:1) media containing 2% Ultroser G (Pall BioSepra, France) with gentamycin (50 μg/mL) and amphotericin B (50 ng/mL). Cells were used for short-circuit current assay between days 14-21 after the establishment of the ALI. At all stages of culture, cells were maintained at 37° C. in 5% CO2 in an air incubator.
Short-Circuit Current (ISC) Measurements
Snapwell inserts were mounted in Costar Vertical Diffusion Chambers (Costar, UK) and were bathed with continuously gassed Ringer solution (5% CO2 in O2; pH 7.4) maintained at 37° C. containing (in mM): 120 NaCl, 25 NaHCO3, 3.3 KH2PO4, 0.8 K2HPO4, 1.2 CaCl2, 1.2 MgCl2 and 10 glucose. The solution osmolarity was always between 280-300 mOsm/kg H2O for all physiological salt solutions used. Cells were voltage clamped to 0 mV (model EVC4000, WPI). Transepithelial resistance (RT) was measured by applying a 2 mV pulse at 30 s intervals and calculating RT by Ohm's law. Data were recorded using a PowerLab workstation (ADlnstruments, UK).
ENaC blocker compounds were added to the apical chamber from a 1000-fold stock solution (prepared in DMSO) to achieve a cumulative concentration response in terms of the inhibition of the basal ISC. At the completion of the concentration response, a supra-maximal concentration of amiloride (10 μM) was added. The concentration of test compound that induced a 50% inhibition of the total amiloride-sensitive ISC (IC50) was calculated using GraphPad Prism v6.05. The results are presented in Table 2, from which it can be seen that the compounds of the present invention have ENaC inhibiting activity.
On to `CCn1c(CNC(=O)c2nc3cc[nH]c3nc2N)[n+](C)c2ccccc21` [Example 1, 2-[({3-amino-5H-pyrrolo[2,3-b]pyrazin-2-yl}formamido)methyl]-1-ethyl-3-methyl-1H-1,3-benzodiazol-3-ium formate], for which the IC50 stood at 33 nM.
Under `CCn1c(CNC(=O)c2nc3cc[nH]c3nc2N)[n+](C)c2ccc(F)cc21` [Example 2, 2-[({3-amino-5H-pyrrolo[2,3-b]pyrazin-2-yl}formamido)methyl]-1-ethyl-6-fluoro-3-methyl-1H-1,3-benzodiazol-3-ium chloride] stands 43 nM; under `CCn1c(CNC(=O)c2nc3cc[nH]c3nc2N)[n+](C)c2ccc(Cl)cc21` [Example 3, 2-[({3-amino-5H-pyrrolo[2,3-b]pyrazin-2-yl}formamido)methyl]-6-chloro-1-ethyl-3-methyl-1H-1,3-benzodiazol-3-ium formate], 19 nM.
`CCn1c(CNC(=O)c2nc3cc[nH]c3nc2N)[n+](C)c2ccc(OC)cc21` [Example 4, 2-[({3-amino-5H-pyrrolo[2,3-b]pyrazin-2-yl}formamido)methyl]-1-ethyl-6-methoxy-3-methyl-1H-1,3-benzodiazol-3-ium formate]: the IC50 was 8 nM.
As for `CCn1c(CNC(=O)c2nc3cc[nH]c3nc2N)[n+](C)c2ccc(C(F)(F)F)cc21` [Example 5, 2-[({3-amino-5H-pyrrolo[2,3-b]pyrazin-2-yl}formamido)methyl]-1-ethyl-3-methyl-6-(trifluoromethyl)-1H-1,3-benzodiazol-3-ium formate], the IC50 turned out to be 9 nM.
As for `CCn1c(CNC(=O)c2nc3cc[nH]c3nc2N)[n+](C)c2ccc(OC(F)(F)F)cc21` [Example 6, 2-[({3-amino-5H-pyrrolo[2,3-b]pyrazin-2-yl}formamido)methyl]-1-ethyl-3-methyl-6-(trifluoromethoxy)-1H-1,3-benzodiazol-3-ium formate], the figure is 5 nM; as for `CCn1c(CNC(=O)c2nc3cc[nH]c3nc2N)[n+](CC)c2ccc(OC)cc21` [Example 7, 2-[({3-amino-5H-pyrrolo[2,3-b]pyrazin-2-yl}formamido)methyl]-1,3-diethyl-6-methoxy-1H-1,3-benzodiazol-3-ium formate], 3 nM.
As for `CCn1c(CNC(=O)c2nc3cc[nH]c3nc2N)[n+](Cc2ccccc2)c2ccc(OC)cc21` [Example 8, 2-[({3-amino-5H-pyrrolo[2,3-b]pyrazin-2-yl}formamido)methyl]-3-benzyl-1-ethyl-6-methoxy-1H-1,3-benzodiazol-3-ium formate], the IC50 turned out to be 9 nM.
As for `CCn1c(CNC(=O)c2nc3cc[nH]c3nc2N)[n+](CC(=O)OC)c2ccc(OC)cc21` [Example 9, 2-[({3-amino-5H-pyrrolo[2,3-b]pyrazin-2-yl}formamido)methyl]-1-ethyl-6-methoxy-3-(2-methoxy-2-oxoethyl)-1H-1,3-benzodiazol-3-ium bromide], the figure is 48 nM; as for `CCn1c(CNC(=O)c2nc3cc[nH]c3nc2N)[n+](CC(=O)O)c2ccc(OC)cc21` [Example 10, 2-[({3-amino-5H-pyrrolo[2,3-b]pyrazin-2-yl}formamido)methyl]-3-(carboxylatomethyl)-1-ethyl-6-methoxy-1H-1,3-benzodiazol-3-ium], 199 nM.
As for `CCn1c(CNC(=O)c2nc3cc[nH]c3nc2N)[n+](CC(N)=O)c2ccc(OC)cc21` [Example 11, 2-[({3-amino-5H-pyrrolo[2,3-b]pyrazin-2-yl}formamido)methyl]-3-(carbamoylmethyl)-1-ethyl-6-methoxy-1H-1,3-benzodiazol-3-ium bromide], the figure is 22 nM; as for `CCn1c(CNC(=O)c2nc3cc[nH]c3nc2N)[n+](CCSC)c2ccc(OC)cc21` [Example 12, 2-[({3-amino-5H-pyrrolo[2,3-b]pyrazin-2-yl}formamido)methyl]-1-ethyl-6-methoxy-3-[2-(methylsulfanyl)ethyl]-1H-1,3-benzodiazol-3-ium iodide], 5 nM; as for `CCn1c(CNC(=O)c2nc3cc[nH]c3nc2N)[n+](CCO)c2ccc(OC)cc21` [Example 13, 2-[({3-amino-5H-pyrrolo[2,3-b]pyrazin-2-yl}formamido)methyl]-1-ethyl-3-(2-hydroxyethyl)-6-methoxy-1H-1,3-benzodiazol-3-ium], 4 nM.
As for `CCn1c(CNC(=O)c2nc3cc[nH]c3nc2N)[n+](CCOCCOCCO)c2ccc(OC)cc21` [Example 14, 2-[({3-amino-5H-pyrrolo[2,3-b]pyrazin-2-yl}formamido)methyl]-1-ethyl-3-{2-[2-(2-hydroxyethoxy)ethoxy]ethyl}-6-methoxy-1H-1,3-benzodiazol-3-ium], the figure is 11 nM.
With `C[n+]1c(CNC(=O)c2nc3cc[nH]c3nc2N)n(Cc2ccccc2)c2ccccc21` [Example 15, 2-[({3-amino-5H-pyrrolo[2,3-b]pyrazin-2-yl}formamido)methyl]-1-benzyl-3-methyl-1H-1,3-benzodiazol-3-ium], the IC50 was found to be 198 nM.

The values above are taken from patent US12371436B2, “Substituted benzodiazoliums as ENaC inhibitors” (ENTERPRISE THERAPEUTICS LIMITED, priority 2016, dated 2025).
